# Experimental data: patent US7985755B2, “2,4-diaminoquinazolines for spinal muscular atrophy” (Families of Spinal Muscular Atrophy, priority 2006, dated 2011)
# Where two headings read alike, the source gives them in different places.
# Columns and labels:
# [1] = test system: SMN2 promoter; experiment: SMN2 promoter assay in NSC-34 cells (β-lactamase reporter); assay type: cell-based, mouse; conditions: read-out: Promoter Assay EC50
# Outline: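 Compounds were tested for SMN2 promoter activation in NSC-34 cells, a mouse spinal cord–neuroblastoma hybrid line. The cells carry a plasmid in which a 3.4 kb SMN2 promoter fragment drives β-lactamase expression. CCF2-AM enters the cells and is converted by cytoplasmic esterase into an active β-lactamase substrate. Fold induction relative to vehicle (DMSO) control reflects the amount of β-lactamase made and therefore promoter activation.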
# [2] = target: T1, Human, recombinant dihydrofolate reductase (Homo sapiens, UniProt P00374); experiment: Human DHFR assay; assay type: biochemical
# T1 construct: purchased Sigma D6566
# T1 sequence (P00374 1-187): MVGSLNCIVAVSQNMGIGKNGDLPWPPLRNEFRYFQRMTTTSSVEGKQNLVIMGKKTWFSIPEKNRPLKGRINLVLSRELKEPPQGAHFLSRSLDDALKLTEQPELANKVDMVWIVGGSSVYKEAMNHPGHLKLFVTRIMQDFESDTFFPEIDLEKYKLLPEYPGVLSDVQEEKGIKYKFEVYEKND
# Procedure: The assay is an adaptation for 96-well plate format from Appleman et al. (Appleman, J R; Howell, E E; Kraut, J; Kuhl, M and Blakley, R L (1988) J. Biol. Chem. 263, 9187-9198). Human, recombinant dihydrofolate reductase (Sigma, D6566) was incubated along with test compounds ([…]) and NADPH (Sigma, N-7505) in 96-well plates. After a 10 min. pre-incubation at room temperature, dihydrofolic acid (Sigma, D7006) was added and the kinetic traces at 340 nm measured on a Spectra Max 190 plate reader at room temperature. Reaction rates were determined from the slopes of the linear portions of the progress curves. The final assay conditions were 0.014 units DHFR, 300 μM NADPH, 30 μM Dihydrofolic acid, 50 mM TRIS, pH 7.6, 100 mM NaCl and 1.25% DMSO. Each compound was measured in duplicates on every assay plate. Each assay plate contained 12 positive controls (DMSO only) and 12 negative controls (no dihydrofolic acid). All data was percent normalized with respect to controls and presented as percent inhibition. Inhibition data was analyzed using Prism and fit to a standard 4-parameter logistic equation to calculate IC50 values.
# [3] = test system: SMN2 gene; conditions: cultured cells taken from patients with SMA type I; cited from earlier work
# [4] = Table 1, SMN2 promoter driving β-lactamase, 12 point dose curve
# [5] = Mus musculus, Table 1, SMN2 promoter driving β-lactamase, 12 point dose curve
# [6] = Mus musculus, Table 2, SMN2 promoter driving β-lactamase
# [7] = Table 3, SMN2 promoter driving β-lactamase
# [8] = Mus musculus, Table 3, SMN2 promoter driving β-lactamase
# [9] = Mus musculus, Table 5, SMN2 promoter driving β-lactamase
compound,measurement,setting,value
Nc1nc(N)c2c(OCC3CCN(S(=O)(=O)c4ccccc4)CC3)cccc2n1 [Example-097],EC50,[1]; [4],< 1000 nM
same,IC50,"[2]; Table 1, read-out: hDHFR IC50",< 20 µM
Nc1nc(N)c2c(OCC3CCN(Cc4ccc5c(c4)OCO5)CC3)cccc2n1 [Example-099],EC50,[1]; [5],< 1000 nM
same,IC50,"[2]; Table 1, read-out: hDHFR IC50",20 to 100 µM
Nc1nc(N)c2c(OCC3CCN(Cc4cc5c(cc4Cl)OCO5)CC3)cccc2n1 [Example-100],EC50,[1]; [5],< 1000 nM
same,IC50,"[2]; Table 1, read-out: hDHFR IC50",20 to 100 µM
COc1ccccc1CN1CCC(COc2cccc3nc(N)nc(N)c23)CC1 [Example-113],EC50,[1]; [4],< 1000 nM
same,IC50,"[2]; Table 1, read-out: hDHFR IC50",> 100 µM
CN(C)c1cccc(C(=O)N2CCC(COc3cccc4nc(N)nc(N)c34)CC2)c1 [Example-115],EC50,[1]; [5],< 1000 nM
same,IC50,"[2]; Table 1, read-out: hDHFR IC50",> 100 µM
CN1CCC(COc2cccc3nc(N)nc(N)c23)CC1 [Example-117],EC50,[1]; [5],< 1000 nM
same,IC50,"[2]; Table 1, read-out: hDHFR IC50",> 100 µM
Nc1nc(N)c2c(OCC3CCN(Cc4cccnc4)CC3)cccc2n1 [Example-120],EC50,[1]; [4],< 1000 nM
same,IC50,"[2]; Table 1, read-out: hDHFR IC50",> 100 µM
Nc1nc(N)c2c(OCC3CCN(CC4CCC4)CC3)cccc2n1 [Example-121],EC50,[1]; [5],< 1000 nM
same,IC50,"[2]; Table 1, read-out: hDHFR IC50",> 100 µM
Nc1nc(N)c2c(OCC3CCN(CC4CCCCO4)CC3)cccc2n1 (stereo not shown) [Example-125],EC50,[1]; [5],1000 to 5000 nM
same,IC50,"[2]; Table 1, read-out: hDHFR IC50",> 100 µM
Nc1nc(N)c2c(OCC3CCN(C(=O)N4CCCC4)CC3)cccc2n1 [Example-126],EC50,[1]; [4],< 1000 nM
same,IC50,"[2]; Table 1, read-out: hDHFR IC50",> 100 µM
Nc1nc(N)c2c(OCC3CCN(C(=O)N4CCOCC4)CC3)cccc2n1 [Example-127],EC50,[1]; [4],< 1000 nM
same,IC50,"[2]; Table 1, read-out: hDHFR IC50",> 100 µM
Nc1nc(N)c2c(OCC3CCN(CC4CCCO4)CC3)cccc2n1 (stereo not shown) [Example-128],EC50,[1]; [5],1000 to 5000 nM
same,IC50,"[2]; Table 1, read-out: hDHFR IC50",> 100 µM
CN(C)c1cccc(CN2CCC(COc3cccc4nc(N)nc(N)c34)CC2)c1 [Example-134],EC50,[1]; [5],< 1000 nM
same,IC50,"[2]; Table 1, read-out: hDHFR IC50",20 to 100 µM
CC(C)CN1CCC(COc2cccc3nc(N)nc(N)c23)CC1 [Example-138],EC50,[1]; [5],< 1000 nM
same,IC50,"[2]; Table 1, read-out: hDHFR IC50",> 100 µM
CC(C)CCN1CCC(COc2cccc3nc(N)nc(N)c23)CC1 [Example-139],EC50,[1]; [5],< 1000 nM
same,IC50,"[2]; Table 1, read-out: hDHFR IC50",> 100 µM
Nc1nc(N)c2c(OCC3CCN(CC4CCCCC4)CC3)cccc2n1 [Example-141],EC50,[1]; [5],< 1000 nM
same,IC50,"[2]; Table 1, read-out: hDHFR IC50",> 100 µM
Nc1nc(N)c2c(OCC3CCN(Cc4c(Cl)cccc4Cl)CC3)cccc2n1 [Example-142],EC50,[1]; [5],< 1000 nM
same,IC50,"[2]; Table 1, read-out: hDHFR IC50",> 100 µM
Nc1nc(N)c2c(OCC3CCN(Cc4cc(F)ccc4F)CC3)cccc2n1 [Example-143],EC50,[1]; [5],< 1000 nM
same,IC50,"[2]; Table 1, read-out: hDHFR IC50",20 to 100 µM
CCCCCCN1CCC(COc2cccc3nc(N)nc(N)c23)CC1 [Example-144],EC50,[1]; [5],< 1000 nM
same,IC50,"[2]; Table 1, read-out: hDHFR IC50",> 100 µM
Nc1nc(N)c2c(OCC3CCN(Cc4c(F)cccc4F)CC3)cccc2n1 [Example-147],EC50,[1]; [5],< 1000 nM
same,IC50,"[2]; Table 1, read-out: hDHFR IC50",> 100 µM
Nc1nc(N)c2c(OCC3CCN(CC4CCNCC4)CC3)cccc2n1 [Example-151],EC50,[1]; [5],< 1000 nM
same,IC50,"[2]; Table 1, read-out: hDHFR IC50",> 100 µM
"Nc1nc(N)c2c(OC[C@H]3CC[C@H](Cc4cccc(Cl)c4)CC3)cccc2n1 [Example-153, 5-[4-(3-Chlorobenzyl)cyclohexylmethoxy]quinazoline-2,4-diamine]",EC50,[1]; [6],< 1000 nM
same,IC50,"[2]; Table 2, read-out: hDHFR IC50",< 20 µM
"Nc1nc(N)c2c(OCC3CCC(Cc4ccccc4F)CC3)cccc2n1 (stereo not shown) [Example-154, 5-[4-(2-Fluorobenzyl)cyclohexylmethoxy]quinazoline-2,4-diamine]",EC50,[1]; [6],< 1000 nM
same,IC50,"[2]; Table 2, read-out: hDHFR IC50",20 to 100 µM
Cc1cccc(C)c1CN1CCC(COc2cccc3nc(N)nc(N)c23)CC1 [Example-158],EC50,[1]; [7],< 1000 nM
same,IC50,"[2]; Table 3, read-out: hDHFR IC50",> 100 µM
Nc1nc(N)c2c(OCC3CCN(CC(F)F)CC3)cccc2n1 [Example-159],EC50,[1]; [7],< 1000 nM
same,IC50,"[2]; Table 3, read-out: hDHFR IC50",> 100 µM
"Nc1nc(N)c2c(OCC3CCN(Cc4c(F)cccc4C(F)(F)F)CC3)cccc2n1 [Example-160, 5-[1-(2-Fluoro-6-trifluoromethylbenzyl)piperidin-4-ylmethoxy]quinazoline-2,4-diamine]",EC50,[1]; [8],< 1000 nM
same,IC50,"[2]; Table 3, read-out: hDHFR IC50",> 100 µM
"Nc1nc(N)c2c(OCC3CCN(Cc4c(F)cccc4Cl)CC3)cccc2n1 [Example-161, 5-[1-(2-Chloro-6-fluorobenzyl)piperidin-4-ylmethoxy]quinazoline-2,4-diamine]",EC50,[1]; [8],< 1000 nM
same,IC50,"[2]; Table 3, read-out: hDHFR IC50",> 100 µM
"Nc1nc(N)c2c(OC[C@H]3CC[C@H](Cc4ccccc4Cl)CC3)cccc2n1 [Example-164, 5-[4-(2-Chlorobenzyl)cyclohexylmethoxy]quinazoline-2,4-diamine]",EC50,[1]; [6],< 1000 nM
same,IC50,"[2]; Table 2, read-out: hDHFR IC50",> 100 µM
Nc1nc(N)c2c(OCC3CCN(CC(F)(F)F)CC3)cccc2n1 [Example-165],EC50,[1]; [7],< 1000 nM
same,IC50,"[2]; Table 3, read-out: hDHFR IC50",> 100 µM
"COc1ccccc1CC1CCC(COc2cccc3nc(N)nc(N)c23)CC1 (stereo not shown) [Example-168, 5-[4-(2-Methoxybenzyl)-cyclohexylmethoxy]quinazoline-2,4-diamine]",EC50,[1]; [6],< 1000 nM
same,IC50,"[2]; Table 2, read-out: hDHFR IC50",< 20 µM
"Nc1nc(N)c2c(OCCN3CCN(S(=O)(=O)c4ccccc4F)CC3)cccc2n1 [Example-206, 5-{2-[4-(2-Fluoro-benzenesulfonyl)-piperazin-1-yl]-ethoxy}-quinazoline-2,4-diamine]",EC50,[1]; [9],< 1000 nM
same,IC50,"[2]; Table 5, read-out: hDHFR IC50",< 20 µM
"Nc1nc(N)c2c(OCCN3CCN(C(=O)c4ccc(F)cc4F)CC3)cccc2n1 [Example-207, {4-[2-(2,4-Diamino-quinazolin-5-yloxy)-ethyl]-piperazin-1-yl}-(2,4-difluoro-phenyl)-methanone]",EC50,[1]; [9],< 1000 nM
same,IC50,"[2]; Table 5, read-out: hDHFR IC50",20 to 100 µM
"Nc1nc(N)c2c(OCCN3CCN(C(=O)c4ccc5c(c4)OCO5)CC3)cccc2n1 [Example-208, Benzo[1,3]dioxol-5-yl-{4-[2-(2,4-diamino-quinazolin-5-yloxy)-ethyl]-piperazin-1-yl}-methanone]",EC50,[1]; [9],< 1000 nM
same,IC50,"[2]; Table 5, read-out: hDHFR IC50",< 20 µM
"Nc1nc(N)c2c(OCCN3CCN(S(=O)(=O)c4ccccc4)CC3)cccc2n1 [Example-209, 5-[2-(4-Benzenesulfonyl-piperazin-1-yl)-ethoxy]-quinazoline-2,4-diamine]",EC50,[1]; [9],< 1000 nM
same,IC50,"[2]; Table 5, read-out: hDHFR IC50",< 20 µM
"Nc1nc(N)c2c(OCCN3CCN(S(=O)(=O)c4ccc(F)cc4F)CC3)cccc2n1 [Example-210, 5-{2-[4-(2,4-Difluoro-benzenesulfonyl)-piperazin-1-yl]-ethoxy}-quinazoline-2,4-diamine]",EC50,[1]; [9],< 1000 nM
same,IC50,"[2]; Table 5, read-out: hDHFR IC50",< 20 µM
"Nc1nc(N)c2c(OCCN3CCN(S(=O)(=O)c4ccc(Cl)c(Cl)c4)CC3)cccc2n1 [Example-211, 5-{2-[4-(3,4-Dichloro-benzenesulfonyl)-piperazin-1-yl]-ethoxy}-quinazoline-2,4-diamine]",EC50,[1]; [9],< 1000 nM
same,IC50,"[2]; Table 5, read-out: hDHFR IC50",< 20 µM
"Nc1nc(N)c2c(OCCN3CCN(C(=O)c4ccc(Cl)c(Cl)c4)CC3)cccc2n1 [Example-212, {4-[2-(2,4-Diamino-quinazolin-5-yloxy)-ethyl]-piperazin-1-yl}-(3,4-dichloro-phenyl)-methanone]",EC50,[1]; [9],< 1000 nM
same,IC50,"[2]; Table 5, read-out: hDHFR IC50",< 20 µM
"Nc1nc(N)c2c(OCCN3CCN(C(=O)c4ccccc4)CC3)cccc2n1 [Example-213, {4-[2-(2,4-Diamino-quinazolin-5-yloxy)-ethyl]-piperazin-1-yl}-phenyl-methanone]",EC50,[1]; [9],< 1000 nM
same,IC50,"[2]; Table 5, read-out: hDHFR IC50",< 20 µM
"Nc1nc(N)c2c(OCCN3CCN(C(=O)c4ccc(Cl)cc4)CC3)cccc2n1 [Example-214, (4-Chloro-phenyl)-{4-[2-(2,4-diamino-quinazolin-5-yloxy)-ethyl]-piperazin-1-yl}-methanone]",EC50,"[1]; Table 5, SMN2 promoter driving β-lactamase",< 1000 nM
same,IC50,"[2]; Table 5, read-out: hDHFR IC50",< 20 µM
"Nc1nc(N)c2c(OCCN3CCN(C(=O)c4ccccc4F)CC3)cccc2n1 [Example-215, {4-[2-(2,4-Diamino-quinazolin-5-yloxy)-ethyl]-piperazin-1-yl}-(2-fluoro-phenyl)-methanone]",EC50,[1]; [9],< 1000 nM
same,IC50,"[2]; Table 5, read-out: hDHFR IC50",< 20 µM
"Nc1nc(N)c2c(OCCN3CCN(Cc4ccccc4F)CC3)cccc2n1 [Example-216, 5-{2-[4-(2-Fluoro-benzyl)-piperazin-1-yl]-ethoxy}-quinazoline-2,4-diamine]",EC50,[1]; [9],< 1000 nM
same,IC50,"[2]; Table 5, read-out: hDHFR IC50",20 to 100 µM
"Nc1nc(N)c2c(OCCN3CCN(Cc4ccc(F)cc4F)CC3)cccc2n1 [Example-217, 5-{2-[4-(2,4-Difluoro-benzyl)-piperazin-1-yl]-ethoxy}-quinazoline-2,4-diamine]",EC50,[1]; [9],< 1000 nM
same,IC50,"[2]; Table 5, read-out: hDHFR IC50",20 to 100 µM
CCCC(CCC)C(=O)O [valproic acid],increase in production of functional SMN protein,[3],30 to 50%
